Test: Thermal stability and polymorphism of imatinib salts
Type: physicochemical

Compound | thermal stability and polymorphic forms
malate | suitable thermal stability and few or single polymorphic forms
malonate | suitable thermal stability and few or single polymorphic forms
tartrate | suitable thermal stability and few or single polymorphic forms
O=S(=O)(O)CCO [isethionate] | suitable thermal stability and few or single polymorphic forms

— US11413289B2 (Aerovate Therapeutics, Inc., priority 2019, dated 2022)
